# Test results published in patent US20080255244A1, “CaM Kinase II Inhibitor Improves Retinoic Acid Therapy and Inhibits the Proliferation of Myeloid Leukemia Cells” (Fred Hutchinson Cancer Research Center, priority 2007, published 2008).
# Experiments:
# [1] = molecular target: T1, RARα/N-CoR interaction (Homo sapiens, UniProt P10276); test: Mammalian two hybrid, Gal-N-CoR / RARαVP16, in MPRO promyelocytes; assay type: cell-based; conditions: ATRA six hours, KN62 48 hours
# T1 construct: expressed in transfected cells; host or cells: MPRO promyelocytes (murine), electroporated
# Source text: Transient transfections and luciferase assays. Murine PT67 fibroblasts were transfected utilizing calcium phosphate precipitation. All hematopoietic cell lines were transiently transfected by electroporation as previously detailed (Johnson, B. et al., Molecular and Cellular Biology 19:3372-3382 (1999)). In the transient transfections the LXSN vector (M28248) served as the expression vector for the wild type and site-directed mutagenized CaMKII and RARα coding region cDNAs. Human cDNA homologous to the coding region of rat CaMKIINα, a CaMKII inhibitory protein, was obtained by RT-PCR from HL60 RNA and cloned into the LXSN vector. The RA-responsive luciferase reporter harbors the RARE from the RARβ2 promoter as previously detailed (Si, J., and Collins, S. J., Blood 100:4401-4409 (2002)). The PON838 plasmid, a β-galactosidase reporter driven by the β-actin promoter, was used as an internal control to determine transfection efficiency for calculating relative luciferase activity.
# [2] = test system: NB4 promyelocytic leukemia cell line; test: Differentiation of NB4 cells (morphology, Cd11b); assay type: cell-based, human; conditions: five days; for morphologic granulocytic differentiation of NB4: single agent, KN-62 5 μM, ATRA 10^−9 M
# Experimental: (§1) FIG. 7. KN-62 regulates the differentiation of myeloid leukemia cell lines. (A) Wright Giemsa-stained HL-60 cells either (a) uninduced or treated for five days with (b) KN62 or (c) ATRA. (d) CD11b expression in HL-60 cells after five days exposure to KN62 (5 μM) or ATRA (1 μM). (B) Wright-Giemsa stained NB4 cells treated for five days with KN-62 (5 μM) and ATRA as indicated. […] (C) Cd11b expression of NB4 cells treated for five days with the indicated concentrations of RA and/or KN-62. (D) Western blots with the indicated antibodies were performed on HL60 cell lysates following incubation with KN62 for the indicated period of time. (E) Western blots of NB4 cell lysates following a five day incubation with the indicated compounds.
# Antibodies and chemical reagents. Antibodies against RARα, βtubulin, CaMKIIα, CaMKIIβ, CaMKIIγ, CaMKIIδ, CaMKIα, as well as phosphospecific antibodies against CaMKII were all purchased from Santa Cruz Biotechnology. Antibodies against N-CoR and SMRT were from Upstate Biotechnology. CaMKIV antibody was from BD Biosciences. Anti-FLAG antibody was from Sigma while anti-HA antibody from Novachem. Quantitation of CD11b surface antigen expression was performed utilizing the fluorescent-activated cell sorter (FACS) with PE-conjugated anti-CD11b antibody from Becton Dickinson. KN-62, KN-93 and ionomycin were obtained from Calbiochem. ATRA and calmodulin agarose beads were from Sigma.
# [3] = test system: autophosphorylated CaMKIIγ in K562 cells; test: Western blot of CaMKIIγ autophosphorylation in K562 cells; assay type: cell-based, human; conditions: gleevec 5 uM, ATRA five days
# Experimental: (§2) FIG. 9. Terminal differentiation/apoptosis of myeloid leukemia cells is associated with decreased CaMKIIγ activation. (A) Lysates from the HL60, NB4 and U937 myeloid cell lines treated with ATRA (1 μM) for the indicated period of time were subjected to Western blots. (B) Lysates from the indicated myeloid cell lines treated for five days with the indicated concentration of ATRA were subjected to Western blots. (C) Lysates from HL60 cells treated with TPA (0.1 μM) for the indicated time were subjected to Western blots. (D) Lysates from NB4 cells treated with arsenic trioxide (1 uM) for the indicated time were subjected to Western blots.
# FIG. 10. Inhibiting bcr-abl activity/expression inhibits CaMKIIγ activation. (A) Lysates from K562 cells undergoing growth arrest following treatment with gleevec (5 uM) for the indicated times were subjected to Western blots. (B) Lysates from TonB210.1 cells depleted of doxycycline for the indicated period of time were subjected to Western blots. (C) IL-3 dependent TonB210.1 cells were deprived of IL-3 for 24 hours (lane 1). The cells were then treated with the indicated compounds simultaneously with the addition of doxycycline (lanes 2-8). After 24 hours cell lysates were harvested and subjected to Western blots with the indicated CaMKII antibodies. (D) K562 cells were cultured for 48 hours with the indicated chemical inhibitors of specific signal transduction pathways. Cell lysates were harvested and subjected to Western blot analysis.
# FIG. 12. CaMKII regulates multiple signal transduction pathways in myeloid cells. (A,B) Lysates from K562 cells cultured for the indicated time in KN93 were subjected to Western blots. (C) The K562 cells transduced as described in Materials and Methods with either (i) the doxycycline (DOX) inducible expression vector/transactivator harboring the full length, Lys^43 mutated, kinase dead CaMKIIγ (kdCaMKIIγ (Tet-on)) or (ii) the CaMKII shRNA generating plasmids, were cultured in liquid suspension in the presence or absence of DOX as indicated, and cell counts obtained after 48 hours. (D) Lysates from K562 cells transduced with the indicated vectors were subjected to Western blots utilizing the indicated antibodies. For lanes 2 and 4 doxycycline (DOX) treatment was for two days.
# (§3) Antibodies and Western blots. Protein extracts, immunoprecipitations and Western blots were performed as previously detailed (Si J, Collins S J. IL-3-induced enhancement of retinoic acid receptor activity is mediated through Stat5, which physically associates with retinoic acid receptors in an IL-3-dependent manner. Blood 100: 4401-9 (2002)). Antibodies against CaMKI, CaMKIIγ, CaMKIV, c-myc, Stat3, Stat5, calmodulin, as well as the phosphospecific CaMKII (T286, 287) and phosphospecific CaMKI (T177) antibodies were from Santa Cruz Biotechnology. Antibodies against phospho-Stat1 (Ser727), phospho-Stat3 (Ser727 and Tyr 705), phospho-Stat5 (Tyr 694), phospho-p44/42 MAP kinase (Thr202/Tyr 204), p44/42 MAP kinase, phospho-p38 MAP kinase (Thr 180/Tyr 182), phospho-GSK3β (Ser9) were from Cell Signaling Technology. Antibodies against Stat1, GSK3β, β-catenin, PP2Ac, and cyclin D1 were from BD Biosciences.
# [4] = test system: autophosphorylated CaMKIIγ in HL60 cells; test: Western blot of CaMKIIγ autophosphorylation in HL60 cells; assay type: cell-based, human; conditions: for activated, autophosphorylated CaMKIIγ level: phospho-T286/7 antibody, ATRA 1 μM, TPA 0.1 μM
# Experimental: as §1, §2
# (§4) Protein extracts, Western blotting and co-immunoprecipitations. Westerns and co-immunoprecipitations were performed as previously detailed (Si, J., and Collins, S. J., Blood 100:4401-4409 (2002)).
# as §3
# [5] = test system: autophosphorylated CaMKIIγ in NB4 cells; test: Western blot of CaMKIIγ autophosphorylation in NB4 cells; assay type: cell-based, human; conditions: for activated, autophosphorylated CaMKIIγ level: single agent, ATRA 1 μM, arsenic trioxide 1 uM
# Experimental: as §1, §2, §4, §3
# [6] = test system: autophosphorylated CaMKIIγ in TonB210.1 cells; test: bcr-abl induced CaMKII autophosphorylation in TonB210.1 cells (Western blot); assay type: cell-based; conditions: TonB210.1 deprived of IL-3 for 24 hours, compound added with doxycycline
# T1 sequence (P10276 whole entry): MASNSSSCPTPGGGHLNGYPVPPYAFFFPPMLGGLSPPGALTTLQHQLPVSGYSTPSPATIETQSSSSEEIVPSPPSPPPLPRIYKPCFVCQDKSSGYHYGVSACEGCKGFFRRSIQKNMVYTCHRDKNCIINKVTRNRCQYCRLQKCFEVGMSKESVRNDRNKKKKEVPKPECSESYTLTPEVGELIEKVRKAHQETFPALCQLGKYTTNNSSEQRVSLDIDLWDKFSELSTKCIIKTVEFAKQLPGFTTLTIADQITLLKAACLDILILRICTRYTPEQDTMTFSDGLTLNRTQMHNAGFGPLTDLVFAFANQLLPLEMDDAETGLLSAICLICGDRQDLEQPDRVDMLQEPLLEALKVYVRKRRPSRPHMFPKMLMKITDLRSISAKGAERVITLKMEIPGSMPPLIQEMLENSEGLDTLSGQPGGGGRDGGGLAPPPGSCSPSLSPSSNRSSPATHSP
structure (smiles),measurement,setting,value
"CC1=C(/C=C/C(C)=C/C=C/C(C)=C/C(=O)O)C(C)(C)CCC1 [ATRA, All-trans retinoic acid]",(UAS)5-driven luciferase reporter activity (RARα/N-CoR interaction),[1],marked decrease
same,morphologic granulocytic differentiation of NB4,[2],little differentiation
same,"activated, autophosphorylated CaMKIIγ level",[3],did not exhibit any decrease
same,total CaMKIIγ level,[4],essentially unchanged
same,"activated, autophosphorylated CaMKIIγ level",[4],marked decrease
same,total CaMKIIγ level,[5],essentially unchanged
same,"activated, autophosphorylated CaMKIIγ level",[5],marked decrease
CN([C@@H](Cc1ccc(OS(=O)(=O)c2cccc3cnccc23)cc1)C(=O)N1CCN(c2ccccc2)CC1)S(=O)(=O)c1cccc2cnccc12 [KN-62],(UAS)5-driven luciferase reporter activity (RARα/N-CoR interaction),[1],significantly inhibits
same,"granulocytic differentiation of NB4 (morphology, Cd11b surface antigen)",[2]; KN-62 (5 μM) in combination with RA 10^−9M-10^−10M,marked increase
same,morphologic granulocytic differentiation of NB4,[2],relatively poor inducer
same,bcr-abl (tet/doxycycline) restored CaMKII autophosphorylation,[6],inhibited in a dose dependent manner
same,total CaMKIIγ level,[4],did not induce any significant changes
same,"activated, autophosphorylated CaMKIIγ level",[4],marked reduction
same,autophosphorylated CaMKIIγ level,"[5]; KN62 combined with relatively low concentrations of RA, five days",reduction
same,"activated, autophosphorylated CaMKIIγ level",[5],little effect
COc1ccc(S(=O)(=O)N(CCO)c2ccccc2CN(C)C/C=C/c2ccc(Cl)cc2)cc1 [KN-93],"activated, autophosphorylated CaMKIIγ level",[3],time dependent reduction
same,bcr-abl (tet/doxycycline) restored CaMKII autophosphorylation,[6],inhibited in a dose dependent manner
